Experimental data: US20250041278A1, “TLR8 AGONIST FOR MODULATING IMMUNE RESPONSE” (The Children's Medical Center Corporation, priority 2021, published 2025)
Like-named read-outs stand apart in the source and are kept apart here.

What was measured:
[1] = target: T1, human (h)TLR8 (Homo sapiens, UniProt Q9NR97); assay: PRR ligand screening (InvivoGen) in reporter cell lines; type: cell-based; settings: HEK reporter cells; % activity vs positive control
T1 construct: host or cells: HEK-293 reporter cells
T1 sequence (Q9NR97 27-1041): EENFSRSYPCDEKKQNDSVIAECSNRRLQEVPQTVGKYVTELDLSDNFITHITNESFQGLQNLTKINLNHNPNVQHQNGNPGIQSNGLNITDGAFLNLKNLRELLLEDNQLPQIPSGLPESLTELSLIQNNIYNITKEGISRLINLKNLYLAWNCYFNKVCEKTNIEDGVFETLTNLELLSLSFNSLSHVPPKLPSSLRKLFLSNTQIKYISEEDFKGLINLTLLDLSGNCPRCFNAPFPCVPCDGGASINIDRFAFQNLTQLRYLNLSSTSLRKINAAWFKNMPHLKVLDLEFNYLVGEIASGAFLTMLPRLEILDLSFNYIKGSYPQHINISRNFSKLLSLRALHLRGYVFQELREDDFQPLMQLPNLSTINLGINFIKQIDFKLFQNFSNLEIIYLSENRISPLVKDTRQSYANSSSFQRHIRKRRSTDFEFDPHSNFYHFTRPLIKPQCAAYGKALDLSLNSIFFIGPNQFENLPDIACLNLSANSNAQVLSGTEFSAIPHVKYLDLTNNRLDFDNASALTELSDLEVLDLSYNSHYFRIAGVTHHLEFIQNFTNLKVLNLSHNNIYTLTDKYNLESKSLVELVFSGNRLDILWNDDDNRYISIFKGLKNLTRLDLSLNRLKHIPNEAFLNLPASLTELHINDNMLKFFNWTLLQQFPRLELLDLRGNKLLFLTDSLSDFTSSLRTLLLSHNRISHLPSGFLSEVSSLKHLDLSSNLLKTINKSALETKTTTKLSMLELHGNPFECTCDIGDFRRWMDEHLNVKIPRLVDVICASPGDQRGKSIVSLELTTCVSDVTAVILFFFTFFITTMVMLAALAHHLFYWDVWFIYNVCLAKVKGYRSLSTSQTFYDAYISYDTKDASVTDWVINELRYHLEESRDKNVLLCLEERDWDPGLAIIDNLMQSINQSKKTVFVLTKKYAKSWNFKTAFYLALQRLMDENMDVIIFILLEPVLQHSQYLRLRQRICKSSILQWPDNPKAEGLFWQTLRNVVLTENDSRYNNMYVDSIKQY
Method: (§1) FIGS. 3A-3E. PVP-179 is a TLR8 agonist. FIG. 3A: PVP-179 was sent to InvivoGen for PRR ligand screening service. Various cells lines were utilized to screen for PVP-179-induced ([…]) activation of TLRs, NOD1/2, RIG-I/MDA-5, Dectin-1 or Mincle receptor. The heat-map depicts percentage activity compared to the positive control for each receptor. FIG. 3B: PVP-179 induced activity (% activity compared to the positive control: CL075 at 1 μg/mL) in HEK-293 cells specifically expressing hTLR8. In brief, these cells have an NF-κB/AP-1-inducible secreted embryonic alkaline phosphatase (SEAP) reporter gene which allows monitoring of signaling via TLR8. After incubation for 16-24 hours, supernatant harvested from the cells is mixed with media containing SEAP-substrate and the optical density (OD) is measured at 650 nm using a spectrophotometer. FIG. 3C: As in FIG. 3B, HEK cells specifically expressing hTLR2, hTLR7, or hTLR8, in addition to the HEK-Null cell line carrying only the reporter gene, were stimulated with the indicated concentrations of PVP-179. […] PVP-179 activity is expressed as a percentage of NF-κB induced in the cells stimulated with TNF (positive control for each cell line). […] The supernatants were harvested after 20-24 hours and SEAP production (to assess NF-κB activity) was measured using QUANTIBlue assay. […]

[2] = tested on: null HEK cells; assay: HEK-Null reporter cell line (reporter gene only); type: cell-based, human; settings: negative control cells, even at higher concentrations
Method: as §1

[3] = tested on: murine bone marrow-derived dendritic cells; assay: mTNF and mIL-6 ELISA in murine bone-marrow-derived dendritic cells; type: cell-based; settings: murine BMDCs, 18 hours
Method: (§2) FIGS. 4A-4D. PVP-179 activates human macrophages and dendritic cells. FIGS. 4A-4B: Murine mononuclear cells were isolated from bone marrow and induced differentiation into dendritic cells (with GM-CSF and IL-4). After 5 days of culturing, these bone-marrow-derived dendritic cells (BMDCs) were stimulated with PVP-179 or MPLA for 18 hours at indicated concentrations. The supernatants were analyzed via ELISA where each dot in the graph represents the mean production of mTNF (FIG. 4A) and mIL-6 (FIG. 4B). N=6 for PVP-179, N=3 for MPLA. Two-way Anova was performed to determine statistical significance. The comparisons shown are compared to control group (0 M PVP-179). FIGS. 4C-4D: PBMCs were isolated from blood of adult human donors. CD14+ monocytes were specifically isolated from the PBMCs and were then cultured in 10% autologous plasma and induced to differentiate into macrophages with M-CSF (FIG. 4C), or dendritic cells with GM-CSF and IL-4 (FIG. 4D). After 5 days, cells were harvested from each differentiated cell type (macrophages: Mφ; dendritic cells: MoDCs) and a 96-well plate was setup with 100,000 cells/well. Cells were then stimulated with indicated concentrations of PVP-179 or R848 (33 μM) or LPS (100 ng/mL). After 20-24 hours of incubation, supernatants were harvested and applied to TNF ELISA. N=2 donors.

[4] = tested on: human monocyte derived macrophages; assay: TNF ELISA in human monocyte derived macrophages; type: cell-based; settings: 20-24 hours
Method: as §2

[5] = tested on: Balb/c murine model of SARS-CoV-2 immunization; type: in vivo, BALB/c mice; settings: for rSpike immunogenicity: prime Day 0, boost Day 14

CCCCn1c(/N=C/c2nc3ccccc3n2C)nc2ccccc21 [PVP-179]
activity among all TLRs and other receptors tested [1]: maximal activity toward human (h)TLR8
NF-κB activity in null HEK cells [2]: no activity was detected
cytokine inducing activity (mTNF, mIL-6) [3]: minimal cytokine inducing activity
TNF-inducing activity [4]: concentration-dependent activity
adjuvant activity ([5]; adult mice): adjuvant activity
rSpike immunogenicity ([5]; adult mice (12 weeks)): enhanced rSpike immunogenicity
antibody subtype enhanced ([5]; aged mice): primarily enhanced the production of anti-rSpike IgG1 subtype antibodies
rSpike immunogenicity ([5]; aged mice (52 weeks/12 months old)): enhanced rSpike immunogenicity
antibody titers compared to rSpike alone ([5]; aged mice, Day 28 serum): 2-5 fold
